Data reported in patent publication US20250213735A1, “NEUROPEPTIDE Y1 RECEPTOR (NPY1R) TARGETED THERAPEUTICS AND USES THEREOF” (Radionetics Oncology, Inc., priority 2023, published 2025).

molecular target: hNPY1R (Homo sapiens (Human), UniProt P25929); assay: NPY1R binding assay (SK-N-MC membrane, [125I]-Peptide YY competition); settings: not given;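 also: bound radioligand separated by filtration over GF/C filter plates and counted, Ki obtained by non-linear regression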
Sequence (P25929 whole entry): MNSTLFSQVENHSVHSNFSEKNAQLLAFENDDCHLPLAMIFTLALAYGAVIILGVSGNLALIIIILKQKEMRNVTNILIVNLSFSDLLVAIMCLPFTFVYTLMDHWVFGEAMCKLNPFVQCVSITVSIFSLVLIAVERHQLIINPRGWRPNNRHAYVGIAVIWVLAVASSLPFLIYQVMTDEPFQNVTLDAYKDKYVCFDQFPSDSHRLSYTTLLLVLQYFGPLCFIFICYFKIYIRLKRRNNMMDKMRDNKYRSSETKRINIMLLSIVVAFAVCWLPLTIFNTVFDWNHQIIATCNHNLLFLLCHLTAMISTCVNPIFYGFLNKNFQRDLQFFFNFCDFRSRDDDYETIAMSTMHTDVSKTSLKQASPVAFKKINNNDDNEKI

Compound | Ki
CCC(=O)NCCNC(=O)/N=C(/N)NCCC[C@@H](NC(=O)[C@H](c1ccc(OCCCNC(=O)CCCCCNC(=O)CN2CCN3CCN4CCN(CC2)CC(=O)[O][Ga]([O]C(=O)C3)[O]C(=O)C4)cc1)N1Cc2ccccc2C1)C(=O)NCc1ccc(O)cc1 [1A-Ga, Gallium (III) 2,2′,2″-(10-(2-((6-((3-(4-((1S,4R,Z)-9-amino-4-((4-hydroxybenzyl)carbamoyl)-1-(isoindolin-2-yl)-2,11,16-trioxo-3,8,10,12,15-pentaazaoctadec-9-en-1-yl)phenoxy)propyl)amino)-6-oxohexyl)amino)-2-oxoethyl)-1,4,7,10-tetraazacyclododecane-1,4,7-triyl)triacetate] | < 10 nM

same assay, conditions: crude SK-N-MC membranes endogenously expressing NPY1R; [125I]-Peptide YY (human) 0.05 nM; 120 min at room temperature; read-out: hNPY1R binding Ki

Compound | Ki
CCC(=O)NCCNC(=O)/N=C(/N)NCCC[C@@H](NC(=O)[C@H](c1ccc(CCCOCCOCCNC(=O)CN2CCN(CC(=O)O)CCN(CC(=O)O)CCN(CC(=O)O)CC2)cc1)N1Cc2ccccc2C1)C(=O)NCc1c(F)cc(O)cc1F (single isomer, unassigned) [8A] | < 10 nM
CCC(=O)NCCNC(=O)/N=C(/N)NCCC[C@@H](NC(=O)[C@@H](c1ccc(CCCOCCOCCNC(=O)CN2CCN(CC(=O)O)CCN(CC(=O)O)CCN(CC(=O)O)CC2)cc1)N1Cc2ccccc2C1)C(=O)NCc1c(F)cc(O)cc1F (single isomer, unassigned) [8B] | 10 to 100 nM
CCC(=O)NCCNC(=O)/N=C(/N)NCCC[C@@H](NC(=O)[C@H](c1cccc(NC(=O)CCCNc2c(NCCCCCCNC(=O)CN3CCN(CC(=O)O)CCN(CC(=O)O)CCN(CC(=O)O)CC3)c(=O)c2=O)c1)N1Cc2ccccc2C1)C(=O)NCc1c(F)cc(O)cc1F (single isomer, unassigned) [31A] | < 10 nM
CCC(=O)NCCNC(=O)/N=C(/N)NCCC[C@@H](NC(=O)[C@@H](c1cccc(NC(=O)CCCNc2c(NCCCCCCNC(=O)CN3CCN(CC(=O)O)CCN(CC(=O)O)CCN(CC(=O)O)CC3)c(=O)c2=O)c1)N1Cc2ccccc2C1)C(=O)NCc1c(F)cc(O)cc1F (single isomer, unassigned) [31B] | < 10 nM
CCC(=O)NCCNC(=O)/N=C(/N)NCCC[C@@H](NC(=O)C(c1cccc(NC(=O)CCCNC(=O)[C@@H](CO)NC(=O)CCNC(=O)CN2CCN(CC(=O)O)CCN(CC(=O)O)CCN(CC(=O)O)CC2)c1)N1Cc2ccccc2C1)C(=O)NCc1c(F)cc(O)cc1F (single isomer, unassigned) [32A] | < 10 nM
CCC(=O)NCCNC(=O)/N=C(/N)NCCC[C@@H](NC(=O)C(c1ccc(OCCCN)cc1)N1Cc2ccccc2C1)C(=O)NCc1c(F)cc(O)cc1F (stereo in doubt) [compound 62, (R)-2-((S)-2-(4-(3-aminopropoxy)phenyl)-2-(isoindolin-2-yl)acetamido)-N-(2,6-difluoro-4-hydroxybenzyl)-5-((Z)-2-((2-propionamidoethyl)carbamoyl)guanidino)pentanamide] | < 10 nM
CCC(=O)NCCNC(=O)/N=C(/N)NCCC[C@@H](NC(=O)[C@H](c1ccc(OCCCNC(=O)CCCCCNC(=O)CN2CCN(CC(=O)O)CCN(CC(=O)O)CCN(CC(=O)O)CC2)cc1)N1Cc2ccccc2C1)C(=O)NCc1ccc(O)cc1 [1A, 2,2′,2″-(10-(2-((6-((3-(4-((1S,4R,Z)-9-amino-4-((4-hydroxybenzyl)carbamoyl)-1-(isoindolin-2-yl)-2,11,16-trioxo-3,8,10,12,15-pentaazaoctadec-9-en-1-yl)phenoxy)propyl)amino)-6-oxohexyl)amino)-2-oxoethyl)-1,4,7,10-tetraazacyclododecane-1,4,7-triyl)triacetic acid] | < 10 nM
CCC(=O)NCCNC(=O)/N=C(/N)NCCC[C@@H](NC(=O)[C@@H](c1ccc(OCCCNC(=O)CCCCCNC(=O)CN2CCN(CC(=O)O)CCN(CC(=O)O)CCN(CC(=O)O)CC2)cc1)N1Cc2ccccc2C1)C(=O)NCc1ccc(O)cc1 [1B, 2,2′,2″-(10-(2-((6-((3-(4-((1R,4R,Z)-9-amino-4-((4-hydroxybenzyl)carbamoyl)-1-(isoindolin-2-yl)-2,11,16-trioxo-3,8,10,12,15-pentaazaoctadec-9-en-1-yl)phenoxy)propyl)-amino)-6-oxohexyl)amino)-2-oxoethyl)-1,4,7,10-tetraazacyclododecane-1,4,7-triyl)triacetic acid-2,2,2-trifluoroacetic acid (1/1)] | 100 to 1000 nM
CCC(=O)NCCNC(=O)/N=C(/N)NCCC[C@@H](NC(=O)[C@H](c1cccc(NC(=O)CCCNC(=O)CCCCCNC(=O)CN2CCN(CC(=O)O)CCN(CC(=O)O)CCN(CC(=O)O)CC2)c1)N1Cc2ccccc2C1)C(=O)NCc1ccc(O)cc1 [3A, 2,2′,2″-(10-(2-((6-((4-((3-((1S,4R,Z)-9-amino-4-((4-hydroxybenzyl)carbamoyl)-1-(isoindolin-2-yl)-2,11,16-trioxo-3,8,10,12,15-pentaazaoctadec-9-en-1-yl)phenyl)amino)-4-oxobutyl)amino)-6-oxohexyl)amino)-2-oxoethyl)-1,4,7,10-tetraazacyclododecane-1,4,7-triyl)triacetic acid-2,2,2-trifluoroacetic acid (1/1)] | < 10 nM
CCC(=O)NCCNC(=O)/N=C(/N)NCCC[C@@H](NC(=O)[C@@H](c1cccc(NC(=O)CCCNC(=O)CCCCCNC(=O)CN2CCN(CC(=O)O)CCN(CC(=O)O)CCN(CC(=O)O)CC2)c1)N1Cc2ccccc2C1)C(=O)NCc1ccc(O)cc1 [3B, 2,2′,2″-(10-(2-((6-((4-((3-((1R,4R,Z)-9-amino-4-((4-hydroxybenzyl)carbamoyl)-1-(isoindolin-2-yl)-2,11,16-trioxo-3,8,10,12,15-pentaazaoctadec-9-en-1-yl)phenyl)amino)-4-oxobutyl)amino)-6-oxohexyl)amino)-2-oxoethyl)-1,4,7,10-tetraazacyclododecane-1,4,7-triyl)triacetic acid] | < 10 nM
CCC(=O)NCCNC(=O)/N=C(/N)NCCC[C@@H](NC(=O)[C@H](c1ccccc1)N1Cc2ccccc2C1)C(=O)NCc1ccc(O)cc1 [60A, (R)—N-(4-hydroxybenzyl)-2-((S)-2-(isoindolin-2-yl)-2-phenylacetamido)-5-((Z)-2-((2-propionamidoethyl)carbamoyl)guanidino)pentanamide] | < 10 nM
CCC(=O)NCCNC(=O)/N=C(/N)NCCC[C@@H](NC(=O)[C@@H](c1ccccc1)N1Cc2ccccc2C1)C(=O)NCc1ccc(O)cc1 [60B, (R)—N-(4-hydroxybenzyl)-2-((R)-2-(isoindolin-2-yl)-2-phenylacetamido)-5-((Z)-2-((2-propionamidoethyl)carbamoyl)guanidino)pentanamide] | 10 to 100 nM
CCC(=O)NCCNC(=O)/N=C(/N)NCCC[C@@H](NC(=O)[C@H](c1ccccc1)N1Cc2ccccc2C1)C(=O)NCc1c(F)cc(O)cc1F [61A, (R)—N-(2,6-difluoro-4-hydroxybenzyl)-2-((S)-2-(isoindolin-2-yl)-2-phenylacetamido)-5-((Z)-2-((2-propionamidoethyl)carbamoyl)guanidino)pentanamide] | < 10 nM
CCC(=O)NCCNC(=O)/N=C(/N)NCCC[C@@H](NC(=O)[C@@H](c1ccccc1)N1Cc2ccccc2C1)C(=O)NCc1c(F)cc(O)cc1F [61B, (R)—N-(2,6-difluoro-4-hydroxybenzyl)-2-((R)-2-(isoindolin-2-yl)-2-phenylacetamido)-5-((Z)-2-((2-propionamidoethyl)carbamoyl)guanidino)pentanamide] | < 10 nM
CCC(=O)NCCNC(=O)/N=C(/N)NCCC[C@@H](NC(=O)[C@H](c1ccc(OCCCN)cc1)N1Cc2ccccc2C1)C(=O)NCc1ccc(O)cc1 [64A, (R)-2-((S)-2-(4-(3-aminopropoxy)phenyl)-2-(isoindolin-2-yl)acetamido)-N-(4-hydroxybenzyl)-5-((Z)-2-((2-propionamidoethyl)carbamoyl)guanidino)pentanamide] | < 10 nM
CCC(=O)NCCNC(=O)/N=C(/N)NCCC[C@@H](NC(=O)[C@@H](c1ccc(OCCCN)cc1)N1Cc2ccccc2C1)C(=O)NCc1ccc(O)cc1 [64B] | 10 to 100 nM
CCNC(=O)/N=C(/N)NCCC[C@@H](NC(=O)[C@H](c1ccccc1)N1Cc2ccc(NCCCN)cc2C1)C(=O)NCc1c(F)cc(O)cc1F [65A, (R)-2-((S)-2-(5-((3-aminopropyl)amino)isoindolin-2-yl)-2-phenylacetamido)-N-(2,6-difluoro-4-hydroxybenzyl)-5-((Z)-2-(ethylcarbamoyl)guanidino)pentanamide] | < 10 nM
CCNC(=O)/N=C(/N)NCCC[C@@H](NC(=O)[C@H](c1cccc(NCCCN)c1)N1Cc2ccccc2C1)C(=O)NCc1c(F)cc(O)cc1F [66A, (R)-2-((S)-2-(3-((3-aminopropyl)amino)phenyl)-2-(isoindolin-2-yl)acetamido)-N-(2,6-difluoro-4-hydroxybenzyl)-5-((Z)-2-(ethylcarbamoyl)guanidino)pentanamide] | < 10 nM
CCNC(=O)/N=C(/N)NCCC[C@@H](NC(=O)[C@@H](c1cccc(NCCCN)c1)N1Cc2ccccc2C1)C(=O)NCc1c(F)cc(O)cc1F [66B, (R)-2-((R)-2-(3-((3-aminopropyl)amino)phenyl)-2-(isoindolin-2-yl)acetamido)-N-(2,6-difluoro-4-hydroxybenzyl)-5-((Z)-2-(ethylcarbamoyl)guanidino)pentanamide] | < 10 nM
N=C(N)NCCC[C@@H](NC(=O)[C@H](c1ccccc1)N1Cc2ccccc2C1=O)C(=O)NCc1ccc(O)cc1 [71A, (R)-5-guanidino-N-(4-hydroxybenzyl)-2-((S)-2-(1-oxoisoindolin-2-yl)-2-phenylacetamido)pentanamide] | > 1000 nM
N=C(N)NCCC[C@@H](NC(=O)[C@@H](c1ccccc1)N1Cc2ccccc2C1=O)C(=O)NCc1ccc(O)cc1 [71B, (R)-5-guanidino-N-(4-hydroxybenzyl)-2-((R)-2-(1-oxoisoindolin-2-yl)-2-phenylacetamido)pentanamide] | > 1000 nM
CCCC1CCN([C@@H](C(=O)N[C@H](CCCNC(=N)N)C(=O)NCc2ccc(O)cc2)c2ccccc2)CC1 [78A, (R)-5-guanidino-N-(4-hydroxybenzyl)-2-((R)-2-phenyl-2-(4-propylpiperidin-1-yl)acetamido)pentanamide] | > 1000 nM
CC1(C)C2CN([C@H](C(=O)N[C@H](CCCNC(=N)N)C(=O)NCc3ccc(O)cc3)c3ccccc3)CC21 (stereo partly drawn) [88A, (2R)-2-((2S)-2-(6,6-dimethyl-3-azabicyclo[3.1.0]hexan-3-yl)-2-phenylacetamido)-5-guanidino-N-(4-hydroxybenzyl)pentanamide] | 100 to 1000 nM
